Experimental data reported in US20100311756A1, “METHODS FOR DELAYING THE PROGRESSION OF AT LEAST ONE OF CARDIAC HYPERTROPHY, CARDIAC REMODELING OR LEFT VENTRICULAR FUNCTION OR THE ONSET OF HEART FAILURE IN SUBJECTS IN NEED OF TREATMENT THEREOF” (TAKEDA PHARMACEUTICALS NORTH AMERICA, INC., priority 2009, published 2010).
Entries after “also recorded” stand apart in the source; their conditions may differ. Marks after values point to notes of the source that are not given here.

System: TAC mice
Test: Transverse aortic constriction (TAC) in mice, Protocol 1: febuxostat for 8 days beginning ~60 min after TAC
Assay type: in vivo
Excerpt: • Mice. Male C57/BL6 mice at 8-9 weeks of age were purchased from Jackson Laboratories (Bar Harbor, Me.) for use in this study. Mice were housed in an air-conditioned room with a 12-hour:12-hour light-dark cycle, received standard mouse chow, and drank tap water. This study was approved by the Institutional Animal Care and Use Committee of the University of Minnesota. • Experimental Protocol 1. This protocol was designed to determine whether febuxostat (2-[3-cyano-4-(2-methylpropoxy)phenyl]-4-methylthiazole-5-carboxylic acid) treatment, beginning immediately after the onset of acute pressure overload, could protect against transverse aortic constriction (TAC)-induced left ventricular (LV) hypertrophy, dysfunction and mortality. Three treatment groups were included (See Table 1, below): sham-operated mice (n=20), TAC mice treated with vehicle (0.5% methylcellulose) (n=30), and TAC mice treated with febuxostat (suspension in 0.5% methylcellulose) (n=30). To generate LV hypertrophy in a short time period with a significant incidence of cardiac mortality, TAC was created by ligating the transverse aorta against a 27 G needle to create severe LV pressure overload. Since mice tend to take in less water and food during the first 1-3 days after the TAC procedure, febuxostat (5 mg/kg/day in 250 μl vehicle) or vehicle (250 μl) was administered daily by oral gavage for a total of 8 days, with the first dose administered on the day of the surgery after the animal awoke from anesthesia (˜60 min after the TAC procedure). On the eighth day, LV function was assessed by echocardiography approximately 1 hour after the last febuxostat or vehicle dose. Approximately 3 hours after echocardiographic evaluation (4 hours after the last febuxostat or vehicle dose), the mice were weighed and blood samples collected. The animals were euthanized and the heart and lungs excised; the right and left atria were trimmed away, and the ventricles and lungs were weighed. Tissue from the left ventricle was used for histological evaluation and Western blots. • Experimental Protocol 2. This protocol was designed to determine whether administration of febuxostat (FBS) or allopurinol (AL) beginning after the onset of cardiac hypertrophy, LV dysfunction and heart failure could exert a protective effect. For this protocol, mice subjected to TAC (using a 26 gauge (G) needle to generate moderate TAC) or sham surgery were divided into six experimental groups as described in Table 1, below. Beginning seven days after TAC, animals were treated with vehicle (0.01 mg/ml NaCl, equivalent salt content as in the FBS drinking water), FBS (0.05 mg/ml) or AL (0.15 mg/ml) in drinking water for three weeks. Following three weeks of treatment, ventricular function was assessed by echocardiography. Blood samples and cardiac tissue were collected during 2-3 hours after the echocardiographic evaluation as described previously in Protocol 1.
• Minimally Invasive TAC Procedure. TAC was performed using the minimally invasive suprasternal approach described by Hu et al. (See, Hu et al., Am. J. Physiol. Heart Circ. Physiol., 3:H1261-9 (2003)). Mice were anesthetized with a mixture of 80 mg/kg ketamine and 30 mg/kg xylazine intraperitoneally. A horizontal incision was made at the level of the suprasternal notch to allow direct visualization of the transverse aorta without entering the pleural space. With the aid of a dissecting microscope, aortic constriction was performed by ligating the aorta between the right innominate artery and the left carotid artery over a 27 G) needle using 5-0 silk suture. The needle was immediately removed after ligation, leaving the aortic constriction in place. The incision was closed and the animals were allowed to recover. Analgesia was provided before the mice awoke from anesthesia. Sham surgery utilized the same procedure but without aortic ligation. • Echocardiography.

[1] = 5 mg/kg/day oral gavage for 8 days from ~60 min after TAC
[2] = 8 days, versus TAC vehicle, listed as FBS

What does the source list for `Cc1nc(-c2ccc(OCC(C)C)c(C#N)c2)sc1C(=O)O` [febuxostat, 2-[3-cyano-4-(2-methylpropoxy)phenyl]-4-methylthiazole-5-carboxylic acid]?
Anterior wall thickness at end-diastole [1]: 0.84 ± 0.02 mm; Anterior wall thickness at end-systole [1]: 1.10 ± 0.04 mm; LV fractional shortening [1]: 31.5 ± 2.2*^,# %; Lung weight [1]: 163 ± 16 mg; Posterior wall thickness at end-diastole [1]: 0.83 ± 0.02*^,# mm; Posterior wall thickness at end-systole [1]: 1.10 ± 0.03 mm; Ventricle weight [1]: 138 ± 7.0*^,# mg; Cardiac myocyte diameter (8 days): 16.3±0.3 μm; Mortality (mice died) (8 days): 14 out of 30; Myocardial fibrosis (8 days): 8.3±2. %; TAC-induced left ventricular (LV) hypertrophy (8 days, FIG. 1A): significantly attenuated; TAC-induced pulmonary congestion (8 days, FIG. 1B): tended to decrease; TAC-induced cardiac sudden death / mortality (effect) (8 days, FIG. 1C): not affected; also recorded: no effect; TAC-induced increase of myocardial ANP (8 days, Western blot of LV): significantly attenuated; TAC-induced increase of myocardial collagen III (8 days, Western blot of LV): significantly attenuated; TAC-induced increase of myocardial nitrotyrosine (8 days, Western blot of LV): significantly blunted; TAC-induced increase of myocardial pre-collagen I (8 days, Western blot of LV): significantly attenuated; TAC-induced increase of p-Erk Thr202/204 (8 days, Western blot of LV): significantly attenuated; TAC-induced increase of p-mTOR Ser2488 (8 days, Western blot of LV): significantly attenuated; TAC-induced increase of t-Erk (8 days, Western blot of LV): significantly attenuated; TAC-induced increase of myocardial nitrotyrosine (8 days, Western blot of LV, listed as FBS): significantly attenuated; Decrease of pulmonary congestion (ratio of lung weight to body weight) (8 days, versus TAC vehicle): about 18%; LV diameter at end-diastole (8 days, versus TAC vehicle): no significant effect; Plasma uric acid (8 days, versus TAC vehicle): significantly decreased; Reduction of ventricular hypertrophy (ratio of ventricular mass to body weight) (8 days, versus TAC vehicle): approximately 15%; TAC-induced decrease of LV ejection fraction (8 days, versus TAC vehicle): attenuated; TAC-induced decrease of LV fractional shortening (8 days, versus TAC vehicle): attenuated; TAC-induced increase of LV diameter at end-systole (8 days, versus TAC vehicle): trend toward attenuating; TAC-induced increase of LV end-diastolic wall thickness (8 days, versus TAC vehicle): significantly attenuated; LV diameter at end-diastole [2]: not changed; TAC-induced decrease of LV ejection fraction [2]: significantly attenuated; TAC-induced increase of LV diameter at end-systole [2]: trend toward attenuation
